# Test results as given in patent US20040054130A1, “Insulin potentiating peptides” (priority 2000, published 2004).
# Square brackets hold non-standard residues; d marks the D form. Ends that are not written are not given here.
# Experiments:
# [1] = system: Zucker fatty (fa/fa) female rats; assay: Acute oral administration, blood glucose; type: in vivo, rat
# Protocol: Overnight fasted Zucker fatty (fa/fa) female rats were administered peptide 3 (ADD9903) by oral gavage at a concentration of 20 μmol/kg of body weight. Rats were then immediately anaesthetized with nembutal administered intraperitoneally in order to avoid variations arising due to activity of the rats. Blood samples were collected from the tail vein at time 0 min (immediately after oral gavage and before anaesthetic), 60 min, 120 min and 180 min, and analyzed for blood glucose by the glucose oxidation method using a YSI Model-2300 STAT glucose analyzer (Yellow Spring, Ohio). Six rats were analyzed for each of the control and treated groups.
# [2] = system: Zucker fatty (fa/fa) rats; assay: Basal blood glucose determination after i.p. peptide; type: in vivo, rat; details: 10 μmol/kg body weight i.p., over 150 min, vs saline
# Protocol: Overnight-fasted Zucker fatty(fa/fa) female rats were anaesthetized with sodium pentobarbitone (60 mg/kg body weight). After 45 min, basal blood glucose samples were taken from the tail vein, followed immediately by intraperitoneal (i.p.) injection of saline (control) or the peptide analogue (test, 10 μmol/kg body weight) in 0.4 ml of saline. Blood samples were taken at 15, 30, 60, 90, 120, 150 minutes after injection, and the blood glucose level in each sample was measured immediately by the glucose oxidase method, using a YSI Model-2300 STAT glucose analyzer (Yellow Spring, Ohio). Six animals for each group were used.
# The reduction of basal blood glucose levels in animals by different peptide analogues administered intraperitoneally (i.p.)at a dose of 10 μmol/kg body weight was measured for over 150 min.
substance,measurement,setting,value
Arg-D-Ala-Phe-Phe-NH2 (R[dA]FF-NH2; N-terminus assumed; SMILES C[C@@H](NC(=O)[C@@H](N)CCCNC(=N)N)C(=O)N[C@@H](Cc1ccccc1)C(=O)N[C@@H](Cc1ccccc1)C(N)=O) [Peptide 3],"decrease in blood glucose, oral compared to intraperitoneal administration",[1]; at 120 min (P<0.005),more profound decrease
same,time of maximal decrease in blood glucose,[1]; oral gavage 20 μmol/kg (P<0.005),120 min
same,blood glucose levels compared to control rats,"[1]; oral gavage 20 μmol/kg, significant from 60 min (P<0.05)",significantly reduced
same,hypoglycaemic effect (reduction of basal blood glucose level),[2],significant hypoglycaemic effects
same,hypoglycaemic effect (reduction of basal blood glucose level),[2]; listed as Arg-D-Ala-Phe-Phe amide,Increased potency
